This note sets out measurements from patent EP0427693A1, “Method for azide displacement of alpha-triflates of 1,5-lactones” (MONSANTO COMPANY, priority 1989, dated 1991).

What all share (format): biochemical
For assay [1], the target named is T1, human liver α-mannosidase (Golgi II) (Homo sapiens, UniProt Q16706).
T1 construct: from tissue; host or cells: human liver
T1 sequence (Q16706 1-1144): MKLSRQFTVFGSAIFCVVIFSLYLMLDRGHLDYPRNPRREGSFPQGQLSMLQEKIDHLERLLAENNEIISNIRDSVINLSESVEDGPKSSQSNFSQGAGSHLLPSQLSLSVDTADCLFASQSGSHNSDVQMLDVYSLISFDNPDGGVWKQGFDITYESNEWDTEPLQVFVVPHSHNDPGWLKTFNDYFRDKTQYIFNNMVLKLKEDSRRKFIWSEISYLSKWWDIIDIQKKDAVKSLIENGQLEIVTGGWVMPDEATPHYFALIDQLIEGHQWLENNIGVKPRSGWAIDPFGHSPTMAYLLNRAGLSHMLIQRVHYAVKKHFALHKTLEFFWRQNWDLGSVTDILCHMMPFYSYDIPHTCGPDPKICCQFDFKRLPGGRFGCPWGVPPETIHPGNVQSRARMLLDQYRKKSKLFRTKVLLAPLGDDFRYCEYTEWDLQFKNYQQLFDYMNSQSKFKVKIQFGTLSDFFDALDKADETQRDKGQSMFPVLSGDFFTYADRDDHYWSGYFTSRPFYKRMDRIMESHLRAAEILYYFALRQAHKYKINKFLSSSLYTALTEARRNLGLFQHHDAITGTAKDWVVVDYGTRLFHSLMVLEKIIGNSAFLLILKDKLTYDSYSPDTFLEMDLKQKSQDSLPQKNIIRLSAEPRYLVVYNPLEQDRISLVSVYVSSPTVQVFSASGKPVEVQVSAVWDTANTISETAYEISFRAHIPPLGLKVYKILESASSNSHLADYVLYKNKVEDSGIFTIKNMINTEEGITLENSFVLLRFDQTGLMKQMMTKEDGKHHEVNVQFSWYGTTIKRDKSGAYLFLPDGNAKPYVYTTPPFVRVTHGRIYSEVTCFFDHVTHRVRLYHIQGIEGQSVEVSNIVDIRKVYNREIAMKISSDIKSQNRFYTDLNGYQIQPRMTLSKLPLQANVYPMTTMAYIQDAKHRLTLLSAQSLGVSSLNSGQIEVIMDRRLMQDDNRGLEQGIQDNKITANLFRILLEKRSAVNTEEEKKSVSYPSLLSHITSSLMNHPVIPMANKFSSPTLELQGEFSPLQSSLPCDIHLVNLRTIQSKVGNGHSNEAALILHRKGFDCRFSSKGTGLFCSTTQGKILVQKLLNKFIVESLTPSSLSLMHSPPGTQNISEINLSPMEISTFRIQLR
In words: Human liver glycosidase inhibition, Golgi II α-mannosidase. To be noted: 1 mM concentration of inhibitor; hydrolysis of 4-umbelliferyl pyrranosides; read-out: % Inhibition α-Mannosidases Golgi II.

Assay [2] addresses T2, human liver α-mannosidase (Neutral) (Homo sapiens, UniProt Q9NTJ4).
T2 construct: from tissue; host or cells: human liver
T2 sequence (Q9NTJ4 1-1040): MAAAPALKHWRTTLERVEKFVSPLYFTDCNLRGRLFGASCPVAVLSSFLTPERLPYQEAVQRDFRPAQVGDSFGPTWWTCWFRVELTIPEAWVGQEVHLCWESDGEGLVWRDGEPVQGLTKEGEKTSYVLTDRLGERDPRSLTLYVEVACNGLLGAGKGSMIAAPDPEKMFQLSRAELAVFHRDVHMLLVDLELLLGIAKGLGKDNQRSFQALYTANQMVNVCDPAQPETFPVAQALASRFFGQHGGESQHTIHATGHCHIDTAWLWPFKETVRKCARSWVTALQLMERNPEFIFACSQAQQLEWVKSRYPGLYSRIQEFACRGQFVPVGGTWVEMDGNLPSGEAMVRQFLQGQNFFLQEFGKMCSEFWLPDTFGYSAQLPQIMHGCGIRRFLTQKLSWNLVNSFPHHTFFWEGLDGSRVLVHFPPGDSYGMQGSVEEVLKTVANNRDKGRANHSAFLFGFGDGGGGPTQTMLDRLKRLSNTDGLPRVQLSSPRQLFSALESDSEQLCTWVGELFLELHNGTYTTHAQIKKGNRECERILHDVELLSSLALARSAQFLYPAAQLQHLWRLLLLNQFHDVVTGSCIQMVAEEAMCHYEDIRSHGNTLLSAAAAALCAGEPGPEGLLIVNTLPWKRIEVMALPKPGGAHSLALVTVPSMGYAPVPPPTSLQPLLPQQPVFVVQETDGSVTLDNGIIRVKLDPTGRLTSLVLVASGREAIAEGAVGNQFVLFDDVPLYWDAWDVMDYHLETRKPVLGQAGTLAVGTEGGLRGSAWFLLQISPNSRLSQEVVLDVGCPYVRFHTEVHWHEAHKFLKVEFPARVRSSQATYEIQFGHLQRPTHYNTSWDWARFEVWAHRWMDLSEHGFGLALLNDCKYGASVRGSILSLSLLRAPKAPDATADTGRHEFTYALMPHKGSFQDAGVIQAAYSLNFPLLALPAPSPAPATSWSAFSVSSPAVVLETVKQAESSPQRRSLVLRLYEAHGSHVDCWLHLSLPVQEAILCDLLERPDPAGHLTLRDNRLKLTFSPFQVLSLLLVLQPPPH
The assay is described as follows: Human liver glycosidase inhibition, neutral α-mannosidase. The settings on record: 1 mM concentration of inhibitor; hydrolysis of 4-umbelliferyl pyrranosides; read-out: % Inhibition α-Mannosidases Neutral.

The target of assay [3] is T3, human liver α-mannosidase (Lysosomal) (Homo sapiens, UniProt O00754).
T3 construct: from tissue; host or cells: human liver
T3 sequence (O00754 50-1011): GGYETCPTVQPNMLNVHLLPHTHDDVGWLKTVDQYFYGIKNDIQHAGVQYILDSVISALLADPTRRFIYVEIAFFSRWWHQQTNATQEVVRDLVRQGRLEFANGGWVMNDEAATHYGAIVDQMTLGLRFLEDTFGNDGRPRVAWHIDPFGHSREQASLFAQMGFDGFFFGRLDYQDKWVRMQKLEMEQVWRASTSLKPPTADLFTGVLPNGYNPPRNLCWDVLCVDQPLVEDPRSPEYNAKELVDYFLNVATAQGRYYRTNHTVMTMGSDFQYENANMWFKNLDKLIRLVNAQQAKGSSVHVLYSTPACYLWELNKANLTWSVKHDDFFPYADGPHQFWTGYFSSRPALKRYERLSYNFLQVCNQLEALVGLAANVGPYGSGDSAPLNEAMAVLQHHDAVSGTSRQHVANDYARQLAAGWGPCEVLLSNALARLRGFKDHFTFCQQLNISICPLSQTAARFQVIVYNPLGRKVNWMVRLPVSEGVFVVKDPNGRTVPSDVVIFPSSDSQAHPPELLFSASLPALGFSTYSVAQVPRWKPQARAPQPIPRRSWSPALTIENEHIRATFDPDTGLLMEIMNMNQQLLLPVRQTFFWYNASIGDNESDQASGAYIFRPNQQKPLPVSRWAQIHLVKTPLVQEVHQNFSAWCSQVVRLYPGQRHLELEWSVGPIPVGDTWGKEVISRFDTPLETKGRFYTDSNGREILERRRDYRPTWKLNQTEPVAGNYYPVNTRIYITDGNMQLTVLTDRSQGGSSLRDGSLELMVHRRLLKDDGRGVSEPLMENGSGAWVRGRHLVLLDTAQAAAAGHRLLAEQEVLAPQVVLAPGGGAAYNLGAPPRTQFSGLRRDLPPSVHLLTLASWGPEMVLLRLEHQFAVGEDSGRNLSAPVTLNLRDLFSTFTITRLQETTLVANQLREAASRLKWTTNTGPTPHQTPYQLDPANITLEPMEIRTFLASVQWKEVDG
In words: Human liver glycosidase inhibition, lysosomal α-mannosidase. The settings on record: 1 mM concentration of inhibitor; hydrolysis of 4-umbelliferyl pyrranosides; read-out: % Inhibition α-Mannosidases Lysosomal.

The next assay deals with human α-mannosidases. The assay is described as follows: Human liver glycosidase inhibition, α-mannosidases. To be noted: human liver glycosidases.
In a further assay the target is T4, human liver α-fucosidase (Homo sapiens, UniProt P04066).
T4 construct: from tissue; host or cells: human liver
T4 sequence (P04066 32-466): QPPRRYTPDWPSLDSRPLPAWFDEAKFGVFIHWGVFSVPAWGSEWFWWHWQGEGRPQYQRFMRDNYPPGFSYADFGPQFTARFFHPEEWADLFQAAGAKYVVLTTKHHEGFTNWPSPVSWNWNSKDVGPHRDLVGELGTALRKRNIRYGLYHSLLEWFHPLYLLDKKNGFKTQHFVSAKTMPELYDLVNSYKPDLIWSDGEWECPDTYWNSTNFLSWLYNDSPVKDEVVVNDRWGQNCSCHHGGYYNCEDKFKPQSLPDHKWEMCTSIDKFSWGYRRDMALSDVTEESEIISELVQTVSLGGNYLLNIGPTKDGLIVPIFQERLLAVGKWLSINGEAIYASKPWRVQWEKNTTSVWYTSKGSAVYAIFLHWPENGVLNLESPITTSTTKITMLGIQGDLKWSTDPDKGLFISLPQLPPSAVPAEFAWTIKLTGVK
In words: Human liver glycosidase inhibition, α-fucosidase. To be noted: for inhibition at 1000 µM: 1 mM concentration of inhibitor, hydrolysis of 4-umbelliferyl pyrranosides; for inhibition of α-fucosidase (in words): human liver glycosidases.

Broadly, the inhibition is how much of the control response was suppressed. Consider `OC[C@@H]1N[C@H](CO)[C@@H](O)[C@@H](O)[C@@H]1O` [6-Epi-homomannojirimycin, 2,6-dideoxy-2,6-imino-L-glycero-D-talo-heptitol], for which the inhibition at 1000 µM turned out to be 0% in assay [1], 0% in assay [2], 0% in assay [3] and 96% at human liver α-fucosidase. Also, the “inhibition of α-mannosidases (in words)” value in the assay on human α-mannosidases is “did not inhibit any α-mannosidase”. Besides, at human liver α-fucosidase, the “inhibition of α-fucosidase (in words)” value was “powerful inhibitors”.

For the compound `OC[C@H]1NC[C@@H](O)[C@@H](O)[C@@H]1O` [Deoxymannojirimycin, reference compound], the inhibition at 1000 µM amounted to 45% in assay [1], 21% in assay [2], 58% in assay [3] and 91% at human liver α-fucosidase. Besides, the “inhibition of α-fucosidase (in words)” value at human liver α-fucosidase is reported as “powerful inhibitors”.

As for `OC[C@H]1N[C@H](CO)[C@@H](O)C(O)[C@@H]1O` (stereo partly drawn) [Homomannojirimycin, 2,6-dideoxy-2,6-imino-D-glycero-D-talo-heptitol], the inhibition at 1000 µM stood at 56% in assay [1], 30% in assay [2], 49% in assay [3] and 29% against human liver α-fucosidase. Besides, on human liver α-fucosidase, the “inhibition of α-fucosidase (in words)” value was “only a weak inhibitor”.
